In patent US10344026B2, “Compositions and methods of targeting mutant K-ras” (NANTBIO, INC., priority 2017, dated 2019):
Read-outs that look alike come from different tables or passages of the source.

Assays:
Format in all cases: cell-based
[1] = test system: phospho-Akt in Panc10.05 (G12D); experiment: In-Cell Western phospho-Akt, Panc10.05; details: Homo sapiens, Panc1005, 1 h; Panc10.05, one hour treatment; read-out: In-Cell Western Panc10.05 (G12D) Akt (P)
Description: (§1) In-cell phosphorylation assays for Erk and Akt were performed on several of the compounds and exemplary results are shown in Table 3 below using HCC827 and A375 cell lines for wild type K-Ras and Panc1 and Panc10.05 cell lines for G12D K-Ras mutants. Results are expressed in μM and corresponding structures are shown in FIGS. 2A-2G and Examples 1-152, above.
(§2) Cells are seeded in complete medium into black sided, clear-bottom 384-well microplates at 3000 cells/[…]/well. Plates are returned to 37° C. CO2 incubator for 18 hr. Drug is made as 200× in DMSO and diluted into medium to 10×. To each well is added 4 ul 10× test article or controls, and plates are returned to the incubator. Final assay DMSO concentration is 0.5%. After one hour, cells are fixed in formaldehyde, rinsed & permeabilized with triton X-100, and blocked with BSA/Goat serum blocking solution. Primary phospho-Akt and phospho-ERK antibodies are added and plates are incubated overnight at 4° C. Plates are rinsed with Tween-20 wash buffer and secondary antibody (Goat anti-rabbit, Thermofisher) is added. After 2 hours, plates are rinsed in Tween-20 wash buffer, and then PBS. Plates are imaged on the Celigo (Nexcelom) and cellular fluorescence is quantitated. Full inhibition of phospho-Akt is achieved with 1 uM BEZ235 (Sellekchem), while full inhibition of phospho-ERK is achieved with 1 uM MEK Inhibitor II Calbiochem). EC50 values are calculated using Graphpad Prism.

Panc1-G12D = experiment: Viability assay (CellTiterBlue, 72 hr) Panc1; details: Homo sapiens, PANC-1, GI50, CellTiterBlue, read-out: 72 hr Cell Viability Panc1 (G12D)
Description: (§3) Viability assays were performed on exemplary compounds and Table 2 below lists exemplary results for selected compounds tested on K-Ras wild type cell lines (Ishikawa, U87-MG, HCC827, and A375) and various K-Ras mutant cell lines (Panc1-G12D; Panc10.05-G12D; HCT116-G31D). Results are expressed in μM and corresponding structures are shown in FIGS. 2A-2G and Examples 1-152, above.
(§4) Cells are counted and seeded at 1000 cells/36 ul medium/well into 384-well microplates. Cells are returned to 37° C. CO2 incubator for 18 hr. Drug is made as 200× in DMSO and diluted into medium to 10×. To each well is added 4 ul 10× drug, and plates are returned to the incubator. Final assay DMSO concentration is 0.5%. After 72 hr, 8 ul CellTiterBlue (Promega) is added to each well. After 3 hr, fluorescence (Ex550/Em590) is determined on the Victor Plate Reader (Perkin Elmer). Assay range is determined by DMSO control (100% viability) and 100 uM tamoxifen (0% viability). GI50 values are calculated using Graphpad Prism.

[2] = test system: phospho-ERK in Panc1 (G12D); experiment: In-Cell Western phospho-ERK, Panc1; details: Homo sapiens, PANC-1, 1 h; Panc1, one hour treatment; read-out: In-Cell Western Panc1 (G12D) Erk (P)
Description: as §1, §2

[3] = test system: HCC827 (K-Ras wild type cell line); experiment: Viability assay (CellTiterBlue, 72 hr) HCC827; details: Homo sapiens, GI50, CellTiterBlue
Description: as §3, §4

[4] = test system: Ishikawa (K-Ras wild type cell line); experiment: Viability assay (CellTiterBlue, 72 hr) Ishikawa; details: Homo sapiens, GI50, CellTiterBlue
Description: as §3, §4

Panc10.05-G12D = experiment: Viability assay (CellTiterBlue, 72 hr) Panc10.05; details: Homo sapiens, Panc1005, GI50, CellTiterBlue, read-out: 72 hr Cell Viability Panc10.05 (G12D)
Description: as §3, §4

HCT116-G31D = experiment: Viability assay (CellTiterBlue, 72 hr) HCT116; details: Homo sapiens, HCT-116, GI50, CellTiterBlue, read-out: 72 hr Cell Viability HCT116 (G13D)
Description: as §3, §4

[5] = test system: phospho-Akt in Panc1 (G12D); experiment: In-Cell Western phospho-Akt, Panc1; details: Homo sapiens, PANC-1, 1 h; Panc1, one hour treatment; read-out: In-Cell Western Panc1 (G12D) Akt (P)
Description: as §1, §2

[6] = test system: phospho-ERK in Panc10.05 (G12D); experiment: In-Cell Western phospho-ERK, Panc10.05; details: Homo sapiens, Panc1005, 1 h; Panc10.05, one hour treatment; read-out: In-Cell Western Panc10.05 (G12D) Erk (P)
Description: as §1, §2

[7] = test system: U87-MG (K-Ras wild type cell line); experiment: Viability assay (CellTiterBlue, 72 hr) U87-MG; details: Homo sapiens, U-87 MG, GI50, CellTiterBlue, U87-MG K-Ras wild-type
Description: as §3, §4

wild type K-Ras = target: T1, wild type K-Ras (Homo sapiens, UniProt P01116); experiment: G-LISA Ras activation, 293H cells transfected with Ras wild-type, EGF stimulated; details: compound 1 hour, then 100 ng/ml EGF 2 minutes
T1 construct: expressed in transfected cells; host or cells: 293H cells
Description: (§5) 293H cells were seeded in 6-wells at 0.6×10^6 cells per well and transfected next day with 5 μg of Ras wild-type, or G12C, G12D or G12V mutant DNA plasmid vector using transfection reagent Lipofectamine 3000. Next day cells were treated with 3.125-25 μM of Ras compounds for 1 hour. Wild-type transfected cells were subsequently treated with 100 ng/ml EGF for 2 minutes. Cells were washed once in ice-cold PBS, lysed in complete lysis buffer on ice, and processed by G-LISA according to Cytoskeleton protocol.

K-Ras G12D = target: T2, K-Ras G12D (Homo sapiens, UniProt P01116, G12D); experiment: G-LISA Ras activation, 293H cells transfected with G12D mutant; details: compound 1 hour
T2 construct: expressed in transfected cells; host or cells: 293H cells
Description: as §5

T2 sequence (P01116 whole entry G12D): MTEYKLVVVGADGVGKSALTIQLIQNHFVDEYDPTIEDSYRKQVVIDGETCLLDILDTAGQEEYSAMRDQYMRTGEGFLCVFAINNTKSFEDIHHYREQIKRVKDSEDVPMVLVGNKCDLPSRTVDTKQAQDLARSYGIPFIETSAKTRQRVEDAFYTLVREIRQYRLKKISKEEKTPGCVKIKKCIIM
T1 sequence (P01116 whole entry): as the sequence (P01116 whole entry G12D) above, with D12G counted along it

Row | IC50 (wild type K-Ras) | IC50 (K-Ras G12D) | Compound | EC50 [1] | IC50 (Panc1-G12D; Panc1 K-Ras G12D) | EC50 [2] | IC50 ([3]; HCC827 K-Ras wild-type) | IC50 ([4]; Ishikawa K-Ras wild-type) | IC50 (Panc10.05-G12D; Panc10.05 K-Ras G12D) | IC50 (HCT116-G31D; HCT116 K-Ras G13D) | EC50 [5] | EC50 [6] | IC50 [7] | IC50 (Panc1-G12D; Panc1 cells (K-Ras G12D)) | IC50 ([3]; HCC827 cells (K-Ras wild-type)) | IC50 ([4]; Ishikawa cells (K-Ras wild-type)) | IC50 (Panc10.05-G12D; Panc10.05 cells (K-Ras G12D)) | IC50 (HCT116-G31D; HCT116 cells (K-Ras G13D))
1 |  |  | Cc1cn(C)nc1C(=O)Nc1nc(-c2ccc3c(c2)CCC(=O)N3)cs1 [Compound 23, 1,4-dimethyl-N-(4-(2-oxo-1,2,3,4-tetrahydroquinolin-6-yl)thiazol-2-yl)-1H-pyrazole-3-carboxamide] | > 25 µM | > 25 µM | > 25 µM | > 25 µM | > 25 µM | 2 µM | > 25 µM | > 25 µM | > 25 µM |  |  |  |  |  | 
2 |  |  | Cc1ncccc1C(=O)Nc1nc(-c2ccc3c(c2)CCC(=O)N3)cs1 [Compound 17, 2-methyl-N-(4-(2-oxo-1,2,3,4-tetrahydroquinolin-6-yl)thiazol-2-yl)nicotinamide] | 23 µM | 7 µM | > 25 µM | > 25 µM | > 25 µM | 4 µM | > 25 µM | > 25 µM | > 25 µM |  |  |  |  |  | 
3 |  |  | Cc1nc(NC(=O)Nc2ccccc2)sc1C(=O)Nc1nc(-c2ccc3c(c2)CCC(=O)N3)cs1 [Compound 15] | > 25 µM | > 25 µM | 2 µM |  | 15 µM | 1.3 µM | > 25 µM |  | > 25 µM | 15 µM |  |  |  |  | 
4 | 25.1 µM | 10.9 µM | Cc1nc(C)c(C(=O)Nc2nc(-c3ccc4c(c3)CCC(=O)N4)cs2)o1 [Compound 4, 2,4-dimethyl-N-(4-(2-oxo-1,2,3,4-tetrahydroquinolin-6-yl)thiazol-2-yl)oxazole-5-carboxamide] |  |  |  |  |  |  |  |  |  |  |  |  |  |  | 
5 |  |  | CCc1nc(C)c(C(=O)Nc2nc(-c3ccc4c(c3)CCC(=O)N4Cc3ccncc3)cs2)o1 [Compound 65, 2-ethyl-4-methyl-N-(4-(2-oxo-1-(pyridin-4-ylmethyl)-1,2,3,4-tetrahydroquinolin-6-yl)thiazol-2-yl)oxazole-5-carboxamide] |  | > 25 µM | > 25 µM |  | > 25 µM | 15 µM | > 25 µM | > 25 µM | > 25 µM | > 25 µM |  |  |  |  | 
6 |  |  | Cc1ncc(C(=O)Nc2nc(-c3ccc4c(c3)CCC(=O)N4)cs2)c(C)n1 [Compound 148, 2,4-dimethyl-N-(4-(2-oxo-1,2,3,4-tetrahydroquinolin-6-yl)thiazol-2-yl)pyrimidine-5-carboxamide] | > 25 µM |  | > 25 µM |  |  |  |  | > 25 µM | > 25 µM |  | 4 µM | 11 µM | 18 µM | 2 µM | > 25 µM
7 |  |  | Cc1nc(C)c(C(=O)Nc2nc(-c3ccc4c(c3)CCC(=O)N4)c(Cl)s2)s1 [Compound 144, N-(5-chloro-4-(2-oxo-1,2,3,4-tetrahydroquinolin-6-yl)thiazol-2-yl)-2,4-dimethylthiazole-5-carboxamide] | > 25 µM | 8 µM | 6 µM |  | > 25 µM | 10 µM | > 25 µM | 16 µM | 10 µM | 11 µM |  |  |  |  | 
8 |  |  | CC(=O)Nc1nc(C)c(C(=O)Nc2nc(-c3ccc4c(c3)CCC(=O)N4)cs2)s1 [Compound 14, 2-acetamido-4-methyl-N-(4-(2-oxo-1,2,3,4-tetrahydroquinolin-6-yl)thiazol-2-yl)thiazole-5-carboxamide] |  | > 25 µM | > 25 µM |  | > 25 µM | 6 µM | > 25 µM | > 25 µM | 26 µM | > 25 µM |  |  |  |  | 
9 | 3.8 µM | 9.3 µM | Cc1nc(C)c(C(=O)Nc2nc(-c3ccc4c(c3)CCC(=O)N4)cs2)s1 [Compound 1, 2,4-dimethyl-N-(4-(2-oxo-1,2,3,4-tetrahydroquinolin-6-yl)thiazol-2-yl)thiazole-5-carboxamide] |  |  |  |  |  |  |  |  |  |  |  |  |  |  | 
10 |  |  | Cc1nc(C2CCCCC2)sc1C(=O)Nc1nc(-c2ccc3c(c2)CCC(=O)N3)cs1 [Compound 146, 2-cyclohexyl-4-methyl-N-(4-(2-oxo-1,2,3,4-tetrahydroquinolin-6-yl)thiazol-2-yl)thiazole-5-carboxamide] | > 25 µM | 13 µM | 5 µM |  | > 25 µM | 8 µM | > 25 µM | > 25 µM | 9 µM |  |  |  |  |  | 
11 |  |  | Cc1nc(C2CCN(C)CC2)sc1C(=O)Nc1nc(-c2ccc3c(c2)CCC(=O)N3)cs1 [Compound 16, 4-methyl-2-(1-methylpiperidin-4-yl)-N-(4-(2-oxo-1,2,3,4-tetrahydroquinolin-6-yl)thiazol-2-yl)thiazole-5-carboxamide] | > 25 µM | 3 µM |  |  | > 25 µM | 11 µM | 9 µM | > 25 µM |  | > 25 µM |  |  |  |  | 
12 |  |  | Cc1nc(NS(C)(=O)=O)sc1C(=O)Nc1nc(-c2ccc3c(c2)CCC(=O)N3)cs1 [Compound 13, 4-methyl-2-(methylsulfonamido)-N-(4-(2-oxo-1,2,3,4-tetrahydroquinolin-6-yl)thiazol-2-yl)thiazole-5-carboxamide] | > 25 µM | > 25 µM |  |  | > 25 µM | > 25 µM | 21 µM | > 25 µM |  | > 25 µM |  |  |  |  | 
13 |  |  | Cc1nc(C(=O)Nc2nc(-c3ccc4c(c3)CCC(=O)N4)cs2)c(C)o1 [Compound 9, 2,5-dimethyl-N-(4-(2-oxo-1,2,3,4-tetrahydroquinolin-6-yl)thiazol-2-yl)oxazole-4-carboxamide] | > 25 µM | > 25 µM | > 25 µM | > 25 µM | > 25 µM | > 25 µM | > 25 µM | > 25 µM | > 25 µM |  |  |  |  |  | 

Row | Compound | IC50 (wild type K-Ras) | IC50 (K-Ras G12D) | EC50 [1] | IC50 (Panc1-G12D; Panc1 K-Ras G12D) | EC50 [2] | IC50 ([3]; HCC827 K-Ras wild-type) | IC50 ([4]; Ishikawa K-Ras wild-type) | IC50 (Panc10.05-G12D; Panc10.05 K-Ras G12D) | IC50 (HCT116-G31D; HCT116 K-Ras G13D) | EC50 [5] | EC50 [6] | IC50 [7] | IC50 (Panc1-G12D; Panc1 cells (K-Ras G12D)) | IC50 ([3]; HCC827 cells (K-Ras wild-type)) | IC50 ([4]; Ishikawa cells (K-Ras wild-type)) | IC50 (Panc10.05-G12D; Panc10.05 cells (K-Ras G12D)) | IC50 (HCT116-G31D; HCT116 cells (K-Ras G13D))
14 | Cc1nc(CN)sc1C(=O)Nc1nc(-c2ccc3c(c2)CCC(=O)N3)cs1 [Compound 147, 2-(aminomethyl)-4-methyl-N-(4-(2-oxo-1,2,3,4-tetrahydroquinolin-6-yl)thiazol-2-yl)thiazole-5-carboxamide] |  | > 25 µM | > 25 µM | 17 µM | 12 µM |  | > 25 µM | 12 µM | > 25 µM | > 25 µM | 14 µM |  |  |  |  |  | 
